Consider one molecule from patent publication US20080319065A1, “Systemic and Intrathecal Effects of a Novel Series of Phospholipase A2 Inhibitors on Hyperalgesia and Spinal Pge2 Release” (The Regents of the University of California, priority 2005, published 2008).

Molecules are shown by their SMILES.

This experiment concerns murine RAW 264.7 macrophage-like cell line. Briefly: Long-term LPS stimulation, PGE2 release. The class given is cell-based. The conditions noted are these: low μM range. How it is done:
Several 2-oxoamides were tested in the long-term lipopolysaccharide (LPS) stimulation pathway in the murine RAW 264.7 macrophage-like cell line. (Raschke, et al., Cell, 1978, 15, 261-267). This pathway requires GIVA PLA2 activity and results in the extracellular release of many eicosanoid compounds including the prostaglandin PGE2. (Gijon, et al., leukoc. Biol., 1999, 65, 330-336). […] In the low μM range, AX041 and AX073 reduced PGE2 release by roughly 40% (FIG. 1(D)). At 1 μM and 5 μM concentrations, small activations were often seen. The in vitro and cellular results together are consistent with the known roles of GVIA PLA2 given that AX010, a selective GVIA inhibitor, had no cellular effect. […] Inhibitors selective for GIVA PLA2 or dual specificity inhibitors reduce PGE2 levels, also consistent with the known role of GIVA PLA2 in PGE2 production.

With `CCCCCCCCC=CCCCCCCCC(=O)C(=O)NCCCC(=O)OC` [AX041, 4-(2-Oxo-nonadec-10-enoylamino)-butyric acid methyl ester], the “reduction of PGE2 release” value is given as “roughly 40%”.
